# ChEMBL document CHEMBL3769337, “Inspired by magnolol: design of NSAID-based compounds with excellent anti-inflammatory effects” (2015)
# Activity calls are given as the source filed them. The calls are words filed in the database; no cut-off is given here.
# Assays:
# [1] = test system: Mus musculus; test: Antiinflammatory activity in TPA induced BALB/c mouse ear edema model assessed as decrease in weight of ear punches at 0.75 uM administered topically for 6 mins prior to TPA challenge measured after 6 hrs relative to control; assay type: functional
# [2] = test system: Mus musculus; test: Antiinflammatory activity in TPA induced BALB/c mouse ear edema model assessed as decrease in weight of ear punches administered topically for 6 mins prior to TPA challenge measured after 6 hrs relative to control; assay type: functional; set-up: concentration or dose not given beside the values; scale not given: the % may be the effect or the level left
# [3] = test system: Mus musculus; test: (§1) Antiinflammatory activity in TPA induced BALB/c mouse ear edema model assessed as decrease in inflammatory cell infiltration level administered topically for 6 mins prior to TPA challenge measured after 6 hrs by Hematoxylin and Eosin staining based microscopy; assay type: functional, organism-based
# [4] = test system: Mus musculus; test: Antiinflammatory activity in TPA induced BALB/c mouse ear edema model assessed as decrease in weight of ear punches compound co-treated with diclofenac at 1:1 compound to diclofenac ratio administered topically for 6 mins prior to TPA challenge measured after 6 hrs relative to control; assay type: functional; set-up: scale not given: the % may be the effect or the level left
# [5] = test system: Mus musculus; test: Antiinflammatory activity in TPA induced BALB/c mouse ear edema model assessed as decrease in weight of ear punches compound co-treated with diflunisal at 1:1 compound to diflunisal ratio administered topically for 6 mins prior to TPA challenge measured after 6 hrs relative to control; assay type: functional; set-up: scale not given: the % may be the effect or the level left
# [6] = test system: Mus musculus; test: Antiinflammatory activity in TPA induced BALB/c mouse ear edema model assessed as decrease in weight of ear punches compound co-treated with flufenamic acid at 1:1 compound to flufenamic acid ratio administered topically for 6 mins prior to TPA challenge measured after 6 hrs relative to control; assay type: functional; set-up: scale not given: the % may be the effect or the level left
# [7] = test system: Mus musculus; test: Antiinflammatory activity in TPA induced BALB/c mouse ear edema model assessed as decrease in weight of ear punches compound co-treated with naproxen at 1:1 compound to naproxen ratio administered topically for 6 mins prior to TPA challenge measured after 6 hrs relative to control; assay type: functional; set-up: scale not given: the % may be the effect or the level left
# [8] = test system: Mus musculus; test: Antiinflammatory activity in TPA induced BALB/c mouse ear edema model assessed as decrease in weight of ear punches compound co-treated with ketoprofen at 1:1 compound to ketoprofen ratio administered topically for 6 mins prior to TPA challenge measured after 6 hrs relative to control; assay type: functional; set-up: scale not given: the % may be the effect or the level left
# [9] = test system: Mus musculus; test: Antiinflammatory activity in TPA induced BALB/c mouse ear edema model assessed as decrease in weight of ear punches compound co-treated with flufenamic acid at 1:2 compound to flufenamic acid ratio administered topically for 6 mins prior to TPA challenge measured after 6 hrs relative to control; assay type: functional; set-up: scale not given: the % may be the effect or the level left
# [10] = test system: Mus musculus; test: Antiinflammatory activity in TPA induced BALB/c mouse ear edema model assessed as decrease in weight of ear punches compound co-treated with naproxen at 1:2 compound to naproxen ratio administered topically for 6 mins prior to TPA challenge measured after 6 hrs relative to control; assay type: functional; set-up: scale not given: the % may be the effect or the level left
# [11] = test system: Mus musculus; test: Antiinflammatory activity in TPA induced BALB/c mouse ear edema model assessed as decrease in weight of ear punches compound co-treated with ketoprofen at 1:2 compound to ketoprofen ratio administered topically for 6 mins prior to TPA challenge measured after 6 hrs relative to control; assay type: functional; set-up: scale not given: the % may be the effect or the level left
# [12] = test system: Mus musculus; test: as §1, with “level compound cotreated with ketoprofen at 1:1 compound to ketoprofen ratio” for “level”; assay type: functional, organism-based
# [13] = test system: Mus musculus; test: Antiinflammatory activity in TPA induced BALB/c mouse ear edema model assessed as decrease in weight of ear punches at 3 uM administered topically for 6 mins prior to TPA challenge measured after 6 hrs relative to control; assay type: functional; set-up: scale not given: the % may be the effect or the level left
# [14] = test system: Mus musculus; test: Antiinflammatory activity in TPA induced BALB/c mouse ear edema model assessed as decrease in weight of ear punches at 1.5 uM administered topically for 6 mins prior to TPA challenge measured after 6 hrs relative to control; assay type: functional; set-up: scale not given: the % may be the effect or the level left
# [15] = test system: Mus musculus; test: Antiinflammatory activity in TPA induced BALB/c mouse ear edema model assessed as decrease in weight of ear punches at 0.325 uM administered topically for 6 mins prior to TPA challenge measured after 6 hrs relative to control; assay type: functional; set-up: scale not given: the % may be the effect or the level left
# [16] = test system: Mus musculus; test: Antiinflammatory activity in TPA induced BALB/c mouse ear edema model assessed as decrease in weight of ear punches at 0.1 uM administered topically for 6 mins prior to TPA challenge measured after 6 hrs relative to control; assay type: functional; set-up: scale not given: the % may be the effect or the level left
# [17] = test system: Mus musculus; test: Antiinflammatory activity in TPA induced BALB/c mouse ear edema model assessed as morphological alterations administered topically for 6 mins prior to TPA challenge measured after 6 hrs by Hematoxylin and Eosin staining based microscopy; assay type: functional, organism-based
# [18] = test system: Mus musculus; test: Decrease in TPA induced IL-1beta levels in TPA induced BALB/c mouse ear edema model administered topically for 6 mins prior to TPA challenge measured after 6 hrs by immunohistochemical analysis; assay type: functional, organism-based
# [19] = test system: Mus musculus; test: Decrease in TPA induced IL6 levels in TPA induced BALB/c mouse ear edema model administered topically for 6 mins prior to TPA challenge measured after 6 hrs by immunohistochemical analysis; assay type: functional, organism-based
# [20] = test system: Mus musculus; test: Decrease in TPA induced TNF-alpha levels in TPA induced BALB/c mouse ear edema model administered topically for 6 mins prior to TPA challenge measured after 6 hrs by immunohistochemical analysis; assay type: functional, organism-based
# [21] = test system: Mus musculus; test: In vivo inhibition of TPA induced p65 translocation form cytoplasm to nucleus in TPA induced BALB/c mouse ear edema model administered topically for 6 mins prior to TPA challenge measured after 6 hrs by immunohistochemical analysis; assay type: functional, organism-based
# [22] = test system: Mus musculus; test: Decrease in nuclear level of phosphorylated p65 in TPA induced BALB/c mouse ear edema model administered topically for 6 mins prior to TPA challenge measured after 6 hrs by immunohistochemical analysis; assay type: functional, organism-based
# [23] = test system: Mus musculus; test: In vivo inhibition of TPA induced NF-kappa-B transcriptional activity in TPA induced BALB/c mouse ear edema model administered topically for 6 mins prior to TPA challenge measured after 6 hrs by immunohistochemical analysis; assay type: functional, organism-based
# [24] = test system: Mus musculus; test: In vivo inhibition of TPA induced I-kappa-B-alpha phosphorylation in TPA induced BALB/c mouse ear edema model administered topically for 6 mins prior to TPA challenge measured after 6 hrs by immunohistochemical analysis; assay type: functional, organism-based
# [25] = test system: Mus musculus; test: In vivo inhibition of TPA induced IKK activity in TPA induced BALB/c mouse ear edema model administered topically for 6 mins prior to TPA challenge measured after 6 hrs by immunohistochemical analysis; assay type: functional, organism-based
smiles,measurement,setting,value
C=CCc1ccc(OC(=O)Cc2ccccc2Nc2c(Cl)cccc2Cl)c(-c2cc(CC=C)ccc2OC(=O)Cc2ccccc2Nc2c(Cl)cccc2Cl)c1,Activity,[1],inactive
CC(C(=O)O)c1cccc(C(=O)c2ccccc2)c1 (stereo unspecified) [KETOPROFEN],Activity,[2],10.9%
same,Activity,[3],Active
O=C(O)c1cc(-c2ccc(F)cc2F)ccc1O [DIFLUNISAL],Activity,[2],80.5%
C=CCc1ccc(O)c(-c2cc(CC=C)ccc2O)c1 [MAGNOLOL],Activity,[2],Dose-dependent effect
same,Activity,[2]; record 2,52.2%
same,Activity,[4],87.9%
same,Activity,[5],94.9%
same,Activity,[6],70.4%
same,Activity,[7],40.2%
same,Activity,[8],16.6%
same,Activity,[9],54.2%
same,Activity,[10],92.8%
same,Activity,[11],72.7%
same,Activity,[3],Active
same,Activity,[12],Active
same,Activity,[13],96.7%
same,Activity,[14],91.7%
same,Activity,[1],58.3%
same,Activity,[15],16.7%
same,Activity,[16],8.3%
C=CCc1ccc(O)c(-c2cc(CC=C)ccc2OC(=O)c2ccccc2Nc2cccc(C(F)(F)F)c2)c1,Activity,[1],<=90%
C=CCc1ccc(OC(=O)C(C)c2cccc(C(=O)c3ccccc3)c2)c(-c2cc(CC=C)ccc2OC(=O)C(C)c2cccc(C(=O)c3ccccc3)c2)c1 (stereo unspecified),Activity,[1],<=90%
COc1ccc2cc([C@H](C)C(=O)O)ccc2c1 [NAPROXEN],Activity,[2],46%
C=CCc1ccc(OC(=O)c2cc(-c3ccc(F)cc3F)ccc2O)c(-c2cc(CC=C)ccc2OC(=O)c2cc(-c3ccc(F)cc3F)ccc2O)c1,Activity,[1],inactive
C=CCc1ccc(OC(=O)c2ccccc2O)c(-c2cc(CC=C)ccc2OC(=O)c2ccccc2O)c1,Activity,[1],inactive
O=C(O)c1ccccc1Nc1cccc(C(F)(F)F)c1 [FLUFENAMIC ACID],Activity,[2],75.8%
C=CCc1ccc(O)c(-c2cc(CC=C)ccc2OC(=O)C(C)c2cccc(C(=O)c3ccccc3)c2)c1 (stereo unspecified),Activity,[3],Active
same,Activity,[17],Active
same,Activity,[18],Active
same,Activity,[19],Active
same,Activity,[20],Active
same,inhibition,[21],Active
same,Activity,[22],Active
same,inhibition,[23],Active
same,inhibition,[24],Active
same,inhibition,[25],Active
same,Activity,[1],<=90%
C=CCc1ccc(O)c(-c2cc(CC=C)ccc2OC(=O)Cc2ccccc2Nc2c(Cl)cccc2Cl)c1,Activity,[1],<=90%
C=CCc1ccc(O)c(-c2cc(CC=C)ccc2OC(=O)c2cc(-c3ccc(F)cc3F)ccc2O)c1,Activity,[1],<=90%
O=C(O)Cc1ccccc1Nc1c(Cl)cccc1Cl [DICLOFENAC],Activity,[2],78.3%
C=CCc1ccc(OC(=O)c2ccccc2Nc2cccc(C)c2C)c(-c2cc(CC=C)ccc2OC(=O)c2ccccc2Nc2cccc(C)c2C)c1,Activity,[1],inactive
C=CCc1ccc(OC(=O)[C@@H](C)c2ccc3cc(OC)ccc3c2)c(-c2cc(CC=C)ccc2OC(=O)[C@@H](C)c2ccc3cc(OC)ccc3c2)c1,Activity,[1],<=90%
C=CCc1ccc(O)c(-c2cc(CC=C)ccc2OC(=O)[C@@H](C)c2ccc3cc(OC)ccc3c2)c1,Activity,[1],<=90%
C=CCc1ccc(OC(=O)CC2(CC)OCCc3c2[nH]c2c(CC)cccc32)c(-c2cc(CC=C)ccc2OC(=O)CC2(CC)OCCc3c2[nH]c2c(CC)cccc32)c1 (stereo unspecified),Activity,[1],inactive
C=CCc1ccc(OC(=O)c2ccccc2Nc2cccc(C(F)(F)F)c2)c(-c2cc(CC=C)ccc2OC(=O)c2ccccc2Nc2cccc(C(F)(F)F)c2)c1,Activity,[1],<=90%
